Tests used:
[1] = tested on: tobacco budworm (Heliothis virescens [Fabricius]); test: surface-treated diet test against tobacco budworm; assay type: in vivo; conditions: 0.25 millimolar on surface of diet, second instar larvae, five-day exposure; for Percent Growth Inhibition: insect weight relative to untreated controls
Source text: The test compounds of formula I are identified by numbers that correspond to those in Table 1.

tobacco budworm = test: foliar treated test against tobacco budworm on chick pea plants; assay type: in vivo, Heliothis virescens; conditions: sprayed chick pea foliage, 96 hour exposure, dead plus moribund insects
Method: Certain compounds of formula I were tested against tobacco budworm on plant foliage. The foliar treated test against tobacco budworm were conducted in the following manner:
Nine-to-ten day-old chick pea plants (Cicer arietinum) were sprayed at 15 psi to runoff on both upper and lower leaf surfaces with solutions of test compound to provide application rates as high as 1000 ppm of test chemical. The solvent used to prepare the solutions of test compound was 10% acetone or methanol (v/v) and 0.1% of the surfactant octylphenoxypolyethoxyethanol in distilled water. Four replicates, each containing one chick pea plant, for each rate of application of test compound were sprayed. The treated plants were transferred to a hood where they were kept until the spray had dried.
The four chick pea plants for each replicate treated with test compound as described above were removed from their pots by cutting the stems just above the soil line. The excised leaves and stems from the four plants in each replicate were placed in individual 237 mL (8-ounce) paper cups, which contained a moistened filter paper. Five second-instar tobacco budworm (7 days old) were counted into each cup, taking care not to cause injury. An opaque plastic lid was placed on each cup, which was then held in a growth chamber for a 96 hour exposure period at 25° C. 50% relative humidity and photo-period of 12 hours light and 12 hours dark. At the end of the 96 hour exposure period the cups were opened, and the numbers of dead, moribund, and live insects were counted. Using the insect counts, the efficacy of the test compound was expressed in percent control. Percent control is derived from the total number of dead insects (TD) plus the total number of moribund insects (TM) as compared to the total number of insects (TI) in the test:
The condition of the test plants was also observed for phytotoxicity and for reduction of feeding damage as compared to an untreated control.

SMILES: FC(F)(F)c1nc2ccc(OCCCOc3c(Cl)cc(OCC=C(Cl)Cl)cc3Cl)cc2o1 [Compound 3, 5-(3,3-dichloroprop-2-enyloxy)-1,3dichloro-2-{3-[2-(trifluoromethyl)benzoxazol-6-yloxy]propoxy}benzene]
- Percent Mortality [1]: 100%
- Percent Growth Inhibition [1]: 100%
- Percent Control of Tobacco Budworm in a Foliar Test (tobacco budworm; 10 ppm): 100%
- Percent Control of Tobacco Budworm in a Foliar Test (tobacco budworm; 30 ppm): 100%

SMILES: FC(F)(F)c1nc2ccc(OCCCCOc3c(Cl)cc(OCC=C(Cl)Cl)cc3Cl)cc2o1 [Compound 6, 5-(3,3-dichloroprop-2-enyloxy)-1,3-dichloro-2-{4-[2-(trifluoromethyl)benzoxazol-6-yloxy]butoxy}benzene]
- Percent Mortality [1]: 100%
- Percent Growth Inhibition [1]: 100%
- Percent Control of Tobacco Budworm in a Foliar Test (tobacco budworm; 10 ppm): 70%
- Percent Control of Tobacco Budworm in a Foliar Test (tobacco budworm; 30 ppm): 95%

SMILES: Cc1nc2cc(OCCCCCOc3c(Cl)cc(OCC=C(Cl)Cl)cc3Cl)ccc2s1 [Compound 12, 5-(3,3-dichloroprop-2-enyloxy)-1,3-dichloro-2-[5-(2-methylbenzothiazol-5-yloxy)pentyloxy]benzene]
- Percent Mortality [1]: 100%
- Percent Growth Inhibition [1]: 100%
- Percent Control of Tobacco Budworm in a Foliar Test (tobacco budworm; 10 ppm): 15%

SMILES: CC1(C)Oc2ccc(OCCCCOc3c(Cl)cc(OCC=C(Cl)Cl)cc3Cl)cc2O1 [Compound 4]
- Percent Control of Tobacco Budworm in a Foliar Test (tobacco budworm; 10 ppm): 15%
- Percent Control of Tobacco Budworm in a Foliar Test (tobacco budworm; 30 ppm): 55%
